In patent publication US9193717B2, “Mineralocorticoid receptor antagonists” (Merck Sharp & Dohme Corp., priority 2011, dated 2015):
pIC50: −log10 of the molar value.

Target: T1, full-length human Mineralocorticoid Receptor (MR) (Homo sapiens, UniProt P08235)
T1 construct: full-length human Mineralocorticoid Receptor (MR); host or cells: PathHunter CHO-K1 cells
T1 sequence (P08235 1-984): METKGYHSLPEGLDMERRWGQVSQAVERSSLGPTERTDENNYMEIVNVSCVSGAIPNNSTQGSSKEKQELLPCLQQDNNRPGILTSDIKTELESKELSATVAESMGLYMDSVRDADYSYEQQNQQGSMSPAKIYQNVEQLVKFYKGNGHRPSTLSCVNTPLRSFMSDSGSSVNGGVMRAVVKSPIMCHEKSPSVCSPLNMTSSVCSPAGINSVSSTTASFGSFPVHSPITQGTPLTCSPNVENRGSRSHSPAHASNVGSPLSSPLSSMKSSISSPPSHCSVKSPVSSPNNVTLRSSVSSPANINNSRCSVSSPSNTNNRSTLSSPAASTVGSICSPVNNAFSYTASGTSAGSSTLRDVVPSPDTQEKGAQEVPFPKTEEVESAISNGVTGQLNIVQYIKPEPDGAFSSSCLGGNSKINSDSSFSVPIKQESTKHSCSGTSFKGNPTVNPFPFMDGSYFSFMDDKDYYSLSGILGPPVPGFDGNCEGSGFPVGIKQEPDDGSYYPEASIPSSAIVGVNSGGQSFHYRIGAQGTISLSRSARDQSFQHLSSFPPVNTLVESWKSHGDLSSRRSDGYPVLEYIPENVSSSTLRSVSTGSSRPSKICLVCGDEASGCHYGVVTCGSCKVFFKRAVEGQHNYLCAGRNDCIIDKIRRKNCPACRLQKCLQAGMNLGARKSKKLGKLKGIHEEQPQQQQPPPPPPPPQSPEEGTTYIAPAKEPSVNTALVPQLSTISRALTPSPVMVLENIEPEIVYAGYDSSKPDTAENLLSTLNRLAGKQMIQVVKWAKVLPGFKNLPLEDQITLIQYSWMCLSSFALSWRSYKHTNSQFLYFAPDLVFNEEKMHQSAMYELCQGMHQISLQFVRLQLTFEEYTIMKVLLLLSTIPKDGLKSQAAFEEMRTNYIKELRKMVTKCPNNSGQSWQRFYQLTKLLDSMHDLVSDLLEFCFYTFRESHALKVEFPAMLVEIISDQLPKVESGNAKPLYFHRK
Experiment: human MR NH Pro assay (PathHunter Protein:Protein interaction assay, MR antagonism)
Assay type: cell-based
Conditions: PathHunter CHO-K1 cells that overexpress human MR; aldosterone (0.3 nM), 6 hours at 37° C.; antagonist mode; read-out: IC50 rating
Experimental: The activity of the compounds of the present invention regarding mineralocorticoid receptor antagonism was evaluated using the following assay.
Assessment of Mr Potency in HMR NH Pro Assay
The human MR NH Pro assay is a commercially available PathHunter™ Protein:Protein interaction assay (DiscoveRx; http://www.discoverx.com/nhrs/prod-nhrs.php) that measures the ability of compounds to antagonize full-length human Mineralocorticoid Receptor (MR) binding to a coactivator peptide. PathHunter™ CHO—K1 cells that overexpress human MR (Cat #93-0456C2, Lot No: 09B0913) were cultured in growth media (F12K w/Glutamine and phenol red (Gibco 11765-047) supplemented with 10% HI FBS (Gibco 16000); 0.25 mg/ml Hygromycin in PBS (Invitrogen 10687-010, 50 mg/ml); 100 I.U./mL and 100 μg/mL Pen/Strep (Gibco 15140-122); 0.6 mg/mL Geneticin).
Compounds were assessed for MR antagonist activity by incubating the cells with a titrating dose of compound in F12K w/Glutamine and phenol red culture media (Invitrogen 11765-047) supplemented with 1% Charcoal/Dextran Treated FBS (Hyclone #SH30068.01) and aldosterone (0.3 nM) for 6 hours at 37° C. […] Growth Media: • F12K w/Glutamine and phenol red (Gibco 11765-047) • 10% HI FBS (Gibco 16000) • 0.25 mg/ml Hygromycin in PBS (Invitrogen 10687-010, 50 mg/ml) • 100 I.U./mL and 100 μg/mL Pen/Strep (Gibco 15140-122) • 0.6 mg/mL Geneticin (Gibco 10131, 50 mg/ml) • 2. Assay Media: • F12K w/Glutamine and phenol red (Invitrogen 11765-047) • 1% Charcoal/Dextran Treated FBS (Hyclone #SH30068.01) • 3. 3× PathHunter Detection Reagents (Cat#93-0001) (need ˜6 ml/plate). […] Control Agonist:Aldosterone:Sigma cat# A9477 • Prepare stock solution-10 μM in DMSO kept at −20° C. • for assay, dilute in assay media to 1.8 or 6 nM (6× of final concentration=about 0.3 nM to about 1.0 nM) • 5. Cell line: PathHunter CHO—K1 MR cells Cat #93-0456C2, Lot No: 09B0913, from operation liquid nitrogen stock. • 6. Control Antagonist:Spironolactone:Sigma #S-3378 and Eplerenone Sigma #107724-20-9 (10 mM stock concentration also prepared in DMSO and stored at −20° C.). • Methods: • Assay Set up and Calculations: • 1. Cells were grown in F12+FBS+Hygromycin+pen/strep+Genetin • 2. Cells were collected with 0.05% trypsin and the cell suspension was spun and resuspended in a volume of F12+1.5% CD-FBS and counted. • 3. The cells were resuspended to 4×10^5 cells/mL. • 4. Cells were (25 μL/well) added to the wells of a 384 well plate. • 5. The plate was then incubated at 37° C. over night in a humidified incubator with 5% CO2. • 6. Test compounds were titrated starting at 4.4 mM, 10-point titration in 1:3 dilution. • 7. Aldosterone was diluted in assay media to 1.8 nM or 6 nM from 10 μM stock (final concentration to be about 0.3 nM to about 1.0 nM). • Protocol for 384 Well Plate Format: 6 Hr Treatment: • 1. Plated 10K exponentially growing cells/well (25 μL) resuspended in assay media to each well using the Multidrop (Thermo Electron) (use white wall, clear bottom assay plates (Costar #3570) and incubate overnight at 37° C., 5% CO2. • 2. 0.25 μL 120× test compound (final DMSO concentration should be <1%) was added to each well n=2, 10 point titrations starting at 36.7 μM final concentration. • 3. 5 μL 6× agonist (final aldosterone concentration should be about 0.3 nM to about 1.0 nM) was added to all wells using the PlateMate Plus.
(ThermoFisher) (except those wells in columns 23 and 24) • 4. 5 μL of assay media was added to all wells in column 23 and 24. • 5. Plates were incubated 6 hrs at 37° C., 5% CO2. • 6. 15 μL 3× DiscoveRx detection reagent was added to each well. • 7. Plates were incubated for 1 hour at room temperature (plates stored in the dark). • 8. Plates were read on Envision (PerkinElmer) luminesence plate reader and analyzed using ADA.

Row | pIC50 | SMILES
1 | 6.30 to 7.00 | C[C@H](c1ccc(F)c(F)c1)N1C(=O)O[C@](Cc2ccccc2)(c2nc3ccc(Cl)cc3[nH]2)C1=O [Compound 15, (5R)-5-Benzyl-5-(6-chloro-1H-benzimidazol-2-yl)-3-[(1R)-1-(3,4-difluorophenyl)ethyl]-1,3-oxazolidine-2,4-dione]
2 | 6.30 to 7.00 | CCS(=O)(=O)Nc1ccc2nc([C@@]3(Cc4ccccc4)OC(=O)N([C@H](C)c4ccc(F)cc4)C3=O)[nH]c2c1 [Compound 16, N-(2-{(5R)-5-Benzyl-3-[(1R)-1-(4-fluorophenyl)ethyl]-2,4-dioxo-1,3-oxazolidin-5-yl}-1H-benzimidazol-6-yl)ethanesulfonamide]
3 | 6.30 to 7.00 | O=C1O[C@](Cc2ccc(F)cc2)(c2nc3ccc(Cl)cc3[nH]2)C(=O)N1[C@@H]1CCc2ccccc21 [Compound 17, 5-(6-Chloro-1H-benzimidazol-2-yl)-3-[(1R)-2,3-dihydro-1H-inden-1-yl]-5-(4-fluorobenzyl)-1,3-oxazolidine-2,4-dione]
4 | 6.30 to 7.00 | C[C@H](C1CCCCC1)N1C(=O)O[C@](Cc2ccc(F)cc2)(c2nc3ccc(C#N)cc3[nH]2)C1=O [Compound 18, 2-{3-[(1R)-1-Cyclohexylethyl]-5-(4-fluorobenzyl)-2,4-dioxo-1,3-oxazolidin-5-yl}-1H-benzimidazole-5-carbonitrile]
5 | > 7.00 | C[C@H](c1ccc(F)cc1)N1C(=O)O[C@](Cc2ccccc2)(c2nc3c(Cl)cc(Cl)cc3[nH]2)C1=O [Compound 19, (5R)-5-Benzyl-5-(4,6-dichloro-1H-benzimidazol-2-yl)-3-[(1R)-1-(4-fluorophenyl)ethyl]-1,3-oxazolidine-2,4-dione]
6 | 6.30 to 7.00 | C[C@H](c1ccc(F)cc1)N1C(=O)O[C@](Cc2ccccc2)(c2nc3c(Cl)cccc3[nH]2)C1=O [Compound 20, 5-Benzyl-5-(4-chloro-1H-benzimidazol-2-yl)-3-[(1R)-1-(4-fluorophenyl)ethyl]-1,3-oxazolidine-2,4-dione]
7 | 6.30 to 7.00 | CNC(=O)c1ccc2[nH]c([C@@]3(Cc4ccccc4)OC(=O)N([C@H](C)c4ccc(F)cc4)C3=O)nc2c1 [Compound 21, Methyl 2-{(5R)-5-benzyl-3-[(1R)-1-(4-fluorophenyl)ethyl]-2,4-dioxo-1,3-oxazolidin-5-yl}-1H-benzimidazole-5-carboxamide]
8 | > 7.00 | C[C@H](c1ccc(F)cc1)N1C(=O)O[C@](Cc2ccccc2)(c2nc3cc(-c4cncnc4)ccc3[nH]2)C1=O [Compound 22, (5R)-5-Benzyl-3-[(1R)-1-(4-fluorophenyl)ethyl]-5-(5-pyrimidin-5-yl-1H-benzimidazol-2-yl)-1,3-oxazolidine-2,4-dione]
9 | > 7.00 | Cc1noc(C)c1-c1ccc2[nH]c([C@@]3(Cc4ccccc4)OC(=O)N([C@H](C)c4ccc(F)cc4)C3=O)nc2c1 [Compound 23, (5R)-5-Benzyl-5-[5-(3,5-dimethylisoxazol-4-yl)-1H-benzimidazol-2-yl]-3-[(1R)-1-(4-fluorophenyl)ethyl]-1,3-oxazolidine-2,4-dione]
10 | > 7.00 | C[C@H](c1ccc(F)cc1)N1C(=O)O[C@](Cc2ccccc2)(c2nc3cc(-c4cnn(C)c4)ccc3[nH]2)C1=O [Compound 24, (5R)-5-Benzyl-3-[(1R)-1-(4-fluorophenyl)ethyl]-5-[5-(1-methyl-1H-pyrazol-4-yl)-1H-benzimidazol-2-yl]-1,3-oxazolidine-2,4-dione]
11 | > 7.00 | C[C@H](c1ccc(F)cc1)N1C(=O)O[C@](Cc2ccccc2)(c2nc3cc(-c4cccnc4)ccc3[nH]2)C1=O [Compound 25, (5R)-5-Benzyl-3-[(1R)-1-(4-fluorophenyl)ethyl]-5-(5-pyridin-3-yl-1H-benzimidazol-2-yl)-1,3-oxazolidine-2,4-dione]
12 | > 7.00 | C[C@H](c1ccc(F)cc1)N1C(=O)O[C@](Cc2ccccc2)(c2nc3cc(-c4cn[nH]c4)ccc3[nH]2)C1=O [Compound 26, (5R)-5-Benzyl-3-[(1R)-1-(4-fluorophenyl)ethyl]-5-[5-(1H-pyrazol-4-yl)-1H-benzimidazol-2-yl]-1,3-oxazolidine-2,4-dione]
13 | 6.30 to 7.00 | C[C@H](c1ccc(F)cc1)N1C(=O)O[C@](Cc2ccccc2)(c2nc3cc(-c4cc[nH]n4)ccc3[nH]2)C1=O [Compound 27, (5R)-5-Benzyl-3-[(1R)-1-(4-fluorophenyl)ethyl]-5-[5-(1H-pyrazol-5-yl)-1H-benzimidazol-2-yl]-1,3-oxazolidine-2,4-dione]
14 | > 7.00 | C[C@H](c1ccc(F)cc1)N1C(=O)O[C@](Cc2ccccc2)(c2nc3cc(-c4cncc(F)c4)ccc3[nH]2)C1=O [Compound 28, (5R)-5-Benzyl-3-[(1R)-1-(4-fluorophenyl)ethyl]-5-[5-(5-fluoro-pyridin-3-yl)-1H-benzimidazol-2-yl]-1,3-oxazolidine-2,4-dione]
15 | 5.70 to 6.30 | C[C@H](c1ccc(F)cc1)N1C(=O)O[C@](Cc2ccccc2)(c2nc3c(-c4cnoc4)cccc3[nH]2)C1=O [Compound 30, (5R)-5-Benzyl-3-[(1R)-1-(4-fluorophenyl)ethyl]-5-(4-isoxazol-4-yl-1H-benzimidazol-2-yl)-1,3-oxazolidine-2,4-dione]
16 | 6.30 to 7.00 | C[C@H](c1ccc(F)cc1)N1C(=O)O[C@](Cc2ccccc2)(c2nc3c(-c4cnn(C)c4)cccc3[nH]2)C1=O [Compound 31, (5R)-5-Benzyl-3-[(1R)-1-(4-fluorophenyl)ethyl]-5-[4-(1-methyl-1H-pyrazol-4-yl)-1H-benzimidazol-2-yl]-1,3-oxazolidine-2,4-dione]
